This is an account of results in patent US10597414B2, “Crystalline polymorphic form of 3-hydroxy-4,5-bis-benzyloxy-6-benzyloxymethyl-2-phenyl-2-OXO-2λ5-[1,2]oxaphosphinane” (PHOST'IN, priority 2016, dated 2020).

Data set [1] is described as follows: Thermogravimetric analysis (TGA). In kind it is physicochemical. As to conditions: about 25° C. to 250° C., before and after melting. As for the experimental part: The analyses were performed on a Perkin Elmer Pyris 1 TGA. The samples (few milligrams of product obtained by carrying out the above scheme 5) were placed in an aluminum pan and the cover was crimped. Analyses were performed under nitrogen purge (20 mL/min) and the cover was punctured at the beginning of the analysis.
Temperature scans were carried out between 25° C. and 300° C. at a speed of 10°/min (unless stated otherwise).

The nature of data set [2]: Stability of polymorphic forms (maturation at room temperature, cross-seeding tests). As to conditions: 25° C., several days of maturation. In kind it is physicochemical. As for the experimental part: Other polymorphic forms could be obtained by recrystallizing out from specific organic solvents starting from the crystalline form of the invention. However, said other polymorphic forms are not stable after several days of maturation at room temperature (more specifically at 25° C.).

Data set [3] is described as follows: Compression test followed by X-ray diffraction. Particulars: pressure of 10 tons for 5 min, 13 mm die. It is filed as physicochemical. As for the experimental part: Compression Test The sample was introduced into a die with 13 mm diameter (m=103.83 mg). The sample was then compressed with a hydraulic press at a pressure of 10 tons for 5 minutes, and immediately analyzed by X-ray diffraction.

Data set [4] is described as follows: Dynamic vapor sorption (DVS) analysis. In kind it is physicochemical. The protocol:
Dynamic Vapor Sorption (DVS)
The analyses were performed on a Surface Measurements System DVS Intrinsic. The samples (few milligrams of product obtained by carrying out the above scheme 5) were placed in an open aluminum pan. Analyses were performed at 25° C.
Relative humidity was scanned between 0% RH and 95% RH with 10% RH steps (40-0-95-0-95; unless stated otherwise). The stability criterion was a variation in mass lower than 0.002% on a 5 min. window (with a minimum step time of 10 min and a maximum of 100 min).

In another data set the test system is glioblastoma. Particulars: prior art, J. Med. Chem. 2012, 55, 2196-2211; cited from earlier work.

Consider `O=P1(c2ccccc2)OC(COCc2ccccc2)C(OCc2ccccc2)C(OCc2ccccc2)C1O` (centres unmarked) [crystalline form of compound I, 3-Hydroxy-4,5-bis-benzyloxy-6-benzyloxymethyl-2-phenyl-2-oxo-2λ5-[1,2]oxaphosphinane], for which the “Weight loss by TGA” value in data set [1] was “no significant weight loss”. In addition, in data set [2], the “Relative stability of polymorphic form” value is “most stable form”. Besides, the “Solid state stability after compression (diffraction pattern vs starting material)” value in data set [3] was “same peaks”. Also, the Hygroscopicity entry in data set [4] (DVS, 0% RH to 95% RH, 25° C.) is reported as “non-hygroscopic”. In addition, the DVS weight loss entry in data set [4] (drying steps, 25° C., relative humidity 0% RH to 95% RH) is “lower than 0.1%”. In data set [4] (sample kept at 95% RH on the final step), the “XRPD pattern after DVS analysis compared with before” value is listed as “same profile”. Also, the “DVS weight gain with respect to the initial weight” value in data set [4] (steps at higher relative humidity conditions, 25° C.) turned out to be 0.1%.
For the compound `O=[P@@]1(c2ccccc2)O[C@H](COCc2ccccc2)[C@@H](OCc2ccccc2)[C@H](OCc2ccccc2)[C@H]1O` [PST3.1a], the “Relative potency among the four diastereoisomers” value in the data set on glioblastoma is “most potent diastereoisomer”.
